Where two headings read alike, the source gives them in different places.
Experiments:
[1] = 1100 IU, 4-year period; cited from earlier work
breast cancer cells = conditions: cited from earlier work
[2] = tested on: human umbilical vein epithelial cells; conditions: of 10,000 genes probed; cited from earlier work
[3] = tested on: genes of the oxidative phosphorylation pathway (GO:0006119); assay: Cardiac gene expression array: oxidative phosphorylation genes; format: in vivo, mice; conditions: mouse cardiac tissue vs control
[4] = tested on: expression of 20,341 genes in brain tissue; assay: Gene expression in brain tissue; format: in vivo, mice
[5] = tested on: genes involved in 220 biological processes; assay: Biochemical pathways / biological processes affected (Table 5); format: in vivo, mice
rhabdomyosarcoma cells = conditions: low dosage; cited from earlier work
injected tumors = conditions: mice with injected tumors; cited from earlier work
[6] = 3500 IU per day; cited from earlier work
[7] = 2000 IU per day; cited from earlier work

## C=C1CC[C@H](O)C/C1=C/C=C1\CCC[C@]2(C)[C@@H]([C@H](C)CCCC(C)C)CC[C@@H]12 [vitamin D3, cholecalciferol]
[1]
  reduction in cancer risk: 60-77%
Breast cancer cells; higher concentrations of vitamin D3 alone, lab dish
  reduction of the number of breast cancer cells: about 25%
Breast cancer cells; higher concentrations of vitamin D3 combined with resveratrol
  reduction of the number of breast cancer cells: 50%
Breast cancer cells; low-dose vitamin D3 alone
  breast tumor cell growth: does not reduce breast tumor cell growth
Breast cancer cells; low-dose vitamin D3 combined with resveratrol
  decline of tumor cell numbers: 40%

## O=c1c(O)c(-c2ccc(O)c(O)c2)oc2cc(O)cc(O)c12 [quercetin, 3,3′,4′,5,7-pentahydroxy-2-phenylchromen-4-one]
[2]
  genes with greater than 2-fold down-regulation: 363 genes
  genes with greater than 2-fold up-regulation: 233 genes

## COc1cc(/C=C/C(=O)O)ccc1O [ferulic acid]
[2]
  genes with greater than 2-fold down-regulation: 363 genes
  genes with greater than 2-fold up-regulation: 233 genes

## Oc1ccc(/C=C/c2cc(O)cc(O)c2)cc1 [resveratrol, 3,4′,5-trihydroxy-trans-stilbene]
[3]
  FC Cox4i2: 1.50
  FC Ndufaf1: −1.20
  FC Ndufc1: 1.20
  FC Ndufc2: −1.30
  FC Ndufs2: 1.10
[4]; animals receiving only this treatment, P<0.01
  number of genes exhibiting altered expression: 424 genes
[4]; resveratrol and calorie reduced diet
  number of genes exhibiting altered expression: 10 genes
[5]; GO: 0000723, 17 genes in series, P<0.05
  Genes changed: Telomere Maintenance: 3
[5]; GO: 0001958, 8 genes in series, P<0.05
  Genes changed: Endochondral Ossification: 2
[5]; GO: 0005975, 316 genes in series, P<0.05
  Genes changed: Carbohydrate Metabolic Process: 21
[5]; GO: 0005976, 42 genes in series, P<0.05
  Genes changed: Polysaccharide Metabolic Process: 9
[5]; GO: 0005977, 31 genes in series, P<0.05
  Genes changed: Glycogen Metabolic Process: 7
[5]; GO: 0006091, 390 genes in series, P<0.05
  Genes changed: Generation Of Precursor Metabolites And Energy: 24
[5]; GO: 0006112, 35 genes in series, P<0.05
  Genes changed: Energy Reserve Metabolic Process: 7
[5]; GO: 0006281, 178 genes in series, P<0.05
  Genes changed: DNA Repair: 13
[5]; GO: 0006353, 6 genes in series, P<0.05
  Genes changed: Transcription Termination: 2
[5]; GO: 0006412, 338 genes in series, P<0.05
  Genes changed: Translation: 25
[5]; GO: 0006413, 40 genes in series, P<0.05
  Genes changed: Translational Initiation: 6
[5]; GO: 0006446, 20 genes in series, P<0.05
  Genes changed: Regulation Of Translational Initiation: 4
[5]; GO: 0006457, 124 genes in series, P<0.05
  Number of genes affected: Protein Folding: 13
[5]; GO: 0006511, 109 genes in series, P<0.05
  Genes changed: Ubiquitin-Dependent Protein Catabolic Process: 9
[5]; GO: 0006512, 356 genes in series, P<0.05
  Genes changed: Ubiquitin Cycle: 27
[5]; GO: 0006596, 5 genes in series, P<0.05
  Genes changed: Polyamine Biosynthetic Process: 2
[5]; GO: 0006605, 161 genes in series, P<0.05
  Genes changed: Protein Targeting: 12
[5]; GO: 0006625, 5 genes in series, P<0.05
  Genes changed: Protein Targeting To Peroxisome: 2
[5]; GO: 0006825, 9 genes in series, P<0.05
  Genes changed: Copper Ion Transport: 3
[5]; GO: 0006886, 357 genes in series, P<0.05
  Genes changed: Intracellular Protein Transport: 26
[5]; GO: 0006888, 16 genes in series, P<0.05
  Genes changed: ER To Golgi Vesicle-Mediated Transport: 3
[5]; GO: 0006919, 16 genes in series, P<0.05
  Genes changed: Caspase Activation: 3
[5]; GO: 0006974, 217 genes in series, P<0.05
  Genes changed: Response To DNA Damage Stimulus: 15
[5]; GO: 0006983, 5 genes in series, P<0.05
  Genes changed: ER Overload Response: 2
[5]; GO: 0006996, 897 genes in series, P<0.05
  Number of genes affected: Organelle Organization And Biogenesis: 53
[5]; GO: 0007010, 403 genes in series, P<0.05
  Number of genes affected: Cytoskeleton Organization And Biogenesis: 26
[5]; GO: 0007017, 155 genes in series, P<0.05
  Genes changed: Microtubule-Based Process: 12
[5]; GO: 0007018, 72 genes in series, P<0.05
  Number of genes affected: Microtubule-Based Movement: 9
[5]; GO: 0007091, 8 genes in series, P<0.05
  Genes changed: Mitotic Metaphase/Anaphase Transition: 2
[5]; GO: 0007143, 8 genes in series, P<0.05
  Genes changed: Female Meiosis: 2
[5]; GO: 0007178, 75 genes in series, P<0.05
  Genes changed: Transmembrane Receptor Protein Serine/Threonine Kinase Signaling Pathway: 7
[5]; GO: 0007264, 320 genes in series, P<0.05
  Genes changed: Small Gtpase Mediated Signal Transduction: 22
[5]; GO: 0008064, 30 genes in series, P<0.05
  Number of genes affected: Regulation Of Actin Polymerization And/Or Depolymerization: 4
[5]; GO: 0008104, 663 genes in series, P<0.05
  Genes changed: Protein Localization: 38
[5]; GO: 0008154, 39 genes in series, P<0.05
  Number of genes affected: Actin Polymerization And/Or Depolymerization: 6
[5]; GO: 0008299, 19 genes in series, P<0.05
  Genes changed: Isoprenoid Biosynthetic Process: 3
[5]; GO: 0008380, 162 genes in series, P<0.05
  Genes changed: RNA Splicing: 12
[5]; GO: 0009058, 979 genes in series, P<0.05
  Genes changed: Biosynthetic Process: 60
[5]; GO: 0009059, 525 genes in series, P<0.05
  Genes changed: Macromolecule Biosynthetic Process: 35
[5]; GO: 0015031, 581 genes in series, P<0.05
  Genes changed: Protein Transport: 38
[5]; GO: 0019941, 111 genes in series, P<0.05
  Genes changed: Modification-Dependent Protein Catabolic Process: 9
[5]; GO: 0030041, 17 genes in series, P<0.05
  Number of genes affected: Actin Filament Polymerization: 3
[5]; GO: 0030832, 31 genes in series, P<0.05
  Number of genes affected: Regulation Of Actin Filament Length: 4
[5]; GO: 0033554, 14 genes in series, P<0.05
  Genes changed: Cellular Response To Stress: 3
[5]; GO: 0043085, 40 genes in series, P<0.05
  Genes changed: Positive Regulation Of Enzyme Activity: 5
[5]; GO: 0043280, 17 genes in series, P<0.05
  Genes changed: Positive Regulation Of Caspase Activity: 3
[5]; GO: 0043281, 27 genes in series, P<0.05
  Genes changed: Regulation Of Caspase Activity: 5
[5]; GO: 0044249, 710 genes in series, P<0.05
  Genes changed: Cellular Biosynthetic Process: 45
[5]; GO: 0044262, 221 genes in series, P<0.05
  Genes changed: Cellular Carbohydrate Metabolic Process: 18
[5]; GO: 0045184, 610 genes in series, P<0.05
  Genes changed: Establishment Of Protein Localization: 38
[5]; GO: 0045351, 6 genes in series, P<0.05
  Genes changed: Interferon Type I Biosynthetic Process: 2
[5]; GO: 0045454, 40 genes in series, P<0.05
  Genes changed: Cell Redox Homeostasis: 6
[5]; GO: 0045577, 8 genes in series, P<0.05
  Genes changed: Regulation Of B Cell Differentiation: 2
[5]; GO: 0046330, 8 genes in series, P<0.05
  Genes changed: Positive Regulation Of JNK Cascade: 2
[5]; GO: 0046907, 523 genes in series, P<0.05
  Number of genes affected: Intracellular Transport: 43
[5]; GO: 0048193, 37 genes in series, P<0.05
  Genes changed: Golgi Vesicle Transport: 6
[5]; GO: 0050673, 30 genes in series, P<0.05
  Genes changed: Epithelial Cell Proliferation: 4
[5]; GO: 0050790, 241 genes in series, P<0.05
  Number of genes affected: Regulation Of Catalytic Activity: 21
[5]; GO: 0051016, 17 genes in series, P<0.05
  Genes changed: Barbed-End Actin Filament Capping: 3
[5]; GO: 0051258, 32 genes in series, P<0.05
  Number of genes affected: Protein Polymerization: 6
[5]; GO: 0051649, 653 genes in series, P<0.05
  Number of genes affected: Establishment Of Cellular Localization: 45
[5]; resveratrol to calorie restricted mice
  biological processes with affected genes: failed to affect any genes in any of these processes
[5]; this treatment, P<0.05
  share of the 220 biological processes with affected genes: 10%

## O=P(O)(O)OC1C(OP(=O)(O)O)C(OP(=O)(O)O)C(OP(=O)(O)O)C(OP(=O)(O)O)C1OP(=O)(O)O (centres unmarked) [IP6, (2,3,4,5,6-pentaphosphonooxycyclohexyl) dihydrogen phosphate]
Rhabdomyosarcoma cells
  suppression of growth of rhabdomyosarcoma cells: 50%
Injected tumors
  tumor size vs non-treated mice: 50 times smaller

## vitamin D
[6]
  risk for breast cancer: halved
[7]
  risk of colon cancer: halved

Reference: US20090169585A1, “Resveratrol-Containing Compositions And Their Use In Modulating Gene Product Concentration Or Activity” (Resveratrol Partners, LLC, priority 2003, published 2009)
